Tests used:
Assay in all cases: relative viability (nuclei count vs DMSO), 5 days (fraction); higher = more cells survive
[1] = compound: CCN(CC)CCNC(=O)c1c(C)[nH]c(/C=C2\C(=O)Nc3ccc(F)cc32)c1C [Sunitinib] + CS(=O)(=O)N1CCN(Cc2cc3nc(-c4cccc5[nH]ncc45)nc(N4CCOCC4)c3s2)CC1 [Pictilisib] (partner 1 µM)
Outline: (§1)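 A single step with final 0.05% Triton X-100, 1% formaldehyde and 1 ug/ml Hoechst fixed the cells and stained nuclei 5 days after treatment. Lung cancer cell lines in 1536-well plates had been treated by pin tool the day after seeding with one drug alone or a fixed anchor-drug dose plus five library-drug doses (not always all listed) in √10 steps, and nuclei were counted on 4× images. Relative viability is the ratio of nuclei in treated wells to nuclei in vehicle wells, taken as the median of duplicate plates.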

[2] = compound: CCN(CC)CCNC(=O)c1c(C)[nH]c(/C=C2\C(=O)Nc3ccc(F)cc32)c1C [Sunitinib] + Cc1nc(NC(=O)N2CCC[C@H]2C(N)=O)sc1-c1ccnc(C(C)(C)C(F)(F)F)c1 [Alpelisib] (partner 2 µM)
Outline: as §1

[3] = compound: CCN(CC)CCNC(=O)c1c(C)[nH]c(/C=C2\C(=O)Nc3ccc(F)cc32)c1C [Sunitinib] + N=C(N)NC(=N)NCCc1ccccc1 [Phenformin] (partner 250 µM)
Outline: as §1

[4] = compound: CCN(CC)CCNC(=O)c1c(C)[nH]c(/C=C2\C(=O)Nc3ccc(F)cc32)c1C [Sunitinib] + NC(=O)Nc1cc(-c2cccc(F)c2)sc1C(=O)N[C@H]1CCCNC1 [AZD7762] (partner 0.2 µM)
Outline: as §1

| Cell Line | relative viability ([1]; first compound 0.02 µM) | relative viability ([1]; first compound 0.06325 µM) | relative viability ([1]; first compound 0.2 µM) | relative viability ([1]; first compound 0.6325 µM) | relative viability ([1]; first compound 2 µM) | relative viability ([2]; first compound 0.02 µM) | relative viability ([2]; first compound 0.06325 µM) | relative viability ([2]; first compound 0.2 µM) | relative viability ([2]; first compound 0.6325 µM) | relative viability ([2]; first compound 2 µM) | relative viability ([3]; first compound 0.02 µM) | relative viability ([3]; first compound 0.06325 µM) | relative viability ([3]; first compound 0.2 µM) | relative viability ([3]; first compound 0.6325 µM) | relative viability ([3]; first compound 2 µM) | relative viability ([4]; first compound 0.02 µM) | relative viability ([4]; first compound 0.06325 µM) | relative viability ([4]; first compound 0.2 µM) | relative viability ([4]; first compound 0.6325 µM) | relative viability ([4]; first compound 2 µM) |
| --- | --- | --- | --- | --- | --- | --- | --- | --- | --- | --- | --- | --- | --- | --- | --- | --- | --- | --- | --- | --- |
| PC-3 [JPC-3] | 0.819 | 0.768 | 0.841 | 0.685 | 0.694 | 1.1 | 1.07 | 1.03 | 1.07 | 0.99 | 0.478 | 0.484 | 0.471 | 0.502 | 0.468 | 0.844 | 0.79 | 0.845 | 0.827 | 0.865 |
| PC-14 | 0.698 | 0.723 | 0.957 | 0.706 | 0.553 | 0.95 | 0.874 | 1.05 | 1.08 | 0.908 | 0.557 | 0.552 | 0.674 | 0.568 | 0.571 | 0.374 | 0.442 | 0.387 | 0.319 | 0.348 |
| RERF-LC-KJ | 0.642 | 0.507 | 0.51 | 0.468 | 0.528 | 0.775 | 0.826 | 0.932 | – | 0.789 | 0.422 | 0.407 | 0.48 | 0.411 | 0.404 | 0.959 | 1.05 | 1.04 | 0.932 | 1 |

Reference: the supplement of paper PMC10307832
